Experiment [1] concerns the target T1, Hexokinase HKDC1 (Homo sapiens, UniProt Q2TB90).
T1 sequence (Q2TB90 whole entry): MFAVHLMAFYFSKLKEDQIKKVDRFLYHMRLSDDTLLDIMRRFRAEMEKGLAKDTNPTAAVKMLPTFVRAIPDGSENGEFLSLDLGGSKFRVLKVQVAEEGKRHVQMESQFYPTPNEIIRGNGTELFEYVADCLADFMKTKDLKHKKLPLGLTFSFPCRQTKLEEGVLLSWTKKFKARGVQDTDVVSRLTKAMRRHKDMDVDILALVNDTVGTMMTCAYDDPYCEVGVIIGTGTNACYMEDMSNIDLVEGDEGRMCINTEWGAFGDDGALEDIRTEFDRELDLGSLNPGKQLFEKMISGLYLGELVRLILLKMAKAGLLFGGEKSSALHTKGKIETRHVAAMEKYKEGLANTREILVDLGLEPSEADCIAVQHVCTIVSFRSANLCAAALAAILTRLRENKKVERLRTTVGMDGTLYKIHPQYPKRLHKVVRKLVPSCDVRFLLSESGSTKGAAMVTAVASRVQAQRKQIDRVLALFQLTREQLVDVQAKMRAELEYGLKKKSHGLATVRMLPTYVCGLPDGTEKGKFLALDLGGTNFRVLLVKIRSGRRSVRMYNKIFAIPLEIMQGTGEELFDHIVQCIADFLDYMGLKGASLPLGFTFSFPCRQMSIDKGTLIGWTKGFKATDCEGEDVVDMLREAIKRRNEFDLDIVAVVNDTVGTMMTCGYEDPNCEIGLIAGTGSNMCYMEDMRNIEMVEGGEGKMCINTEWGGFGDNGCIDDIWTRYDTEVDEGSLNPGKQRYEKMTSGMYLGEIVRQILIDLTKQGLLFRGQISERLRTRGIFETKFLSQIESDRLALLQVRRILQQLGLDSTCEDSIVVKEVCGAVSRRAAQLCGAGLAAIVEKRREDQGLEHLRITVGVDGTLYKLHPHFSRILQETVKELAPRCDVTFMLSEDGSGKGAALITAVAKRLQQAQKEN
The experiment is described as follows: inhibition of HKDC1 glucose phosphorylation – biochemical, W721R variant, dose response (AID 504729). Type of experiment: functional.

The target of experiment [2] is Scavenger receptor class B member 1 (Mus musculus, UniProt Q61009). The experiment is described as follows: mouse SR-BI DiI-HDL uptake blockers – ldlA[mSR-BI] cells, fluorescence, cherry pick, dose response (AID 493194).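 Further: cellular uptake of fluorescent DiI-labeled HDL measured as cell fluorescence.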 Type of experiment: functional, cell-based.
Experiment [3] in a line: off-target signal loss in HeLa-CEM21 co-culture – HeLa F-luc CTL cells, cherry-picked, counter-screen for HIV-1 Env fusion inhibitor project, dose response (AID 652040).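 Further: potency for signal decrease marking cytotoxic or nonspecific inhibition.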 Type of experiment: functional, cell-based. In general terms: A counterscreen serves to expose hits that act by an unwanted route or on another target.
The nature of experiment [4]: HGIII-sPLA2 enzyme inhibition potency – biochemical, QFRET, IC50, dose response (AID 743457).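 Further: green fluorescence rise as the enzyme cleaves BODIPY PC-A2 in liposomes.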
Experiment [5] can be described thus: Counterscreen for AddAB inhibitors: absorbance-based bacterial cell-based high throughput dose response assay for inhibitors of bacterial viability. [Related pubchem assays (depositor defined):AID435030, AID449728, AID449731, AID488942, AID488955, AID488956]. Type of experiment: functional.
Experiment [6] has as its target Exodeoxyribonuclease V (Escherichia coli (strain K12), UniProt P04993+P07648+P08394). The experiment in a line: RecBCD inhibition via phage-restricted bacterial growth – absorbance, V66 E. coli, mutant T4 phage, counter-screen for AddAB inhibitor project, dose response (AID 492957). Type of experiment: functional, cell-based, Escherichia coli str. K-12 substr. MG1655.

The target of experiment [7] is SUMO-activating enzyme (Homo sapiens, UniProt Q9UBT2). The experiment in a line: blockers of UBC9-mediated SUMO conjugation – biochemical, AlphaScreen, SUMOylation inhibitor project, confirmation (AID 2018). Type of experiment: functional. For orientation: Bead proximity is the source of the signal in Alpha formats.
The subject of experiment [8] is Streptococcus sp. 'group A'. The experiment is described as follows: Streptococcus pyogenes SK(-)GAS viability under kanamycin – luminescence, BacTiterGlo, confirmation, counter-screen for streptokinase expression inhibitor project, dose response (AID 1900). Type of experiment: functional, organism-based.
In experiment [9] the target is T2, Streptokinase A (Streptococcus pyogenes serotype M1, UniProt P10520).
T2 sequence (P10520 whole entry): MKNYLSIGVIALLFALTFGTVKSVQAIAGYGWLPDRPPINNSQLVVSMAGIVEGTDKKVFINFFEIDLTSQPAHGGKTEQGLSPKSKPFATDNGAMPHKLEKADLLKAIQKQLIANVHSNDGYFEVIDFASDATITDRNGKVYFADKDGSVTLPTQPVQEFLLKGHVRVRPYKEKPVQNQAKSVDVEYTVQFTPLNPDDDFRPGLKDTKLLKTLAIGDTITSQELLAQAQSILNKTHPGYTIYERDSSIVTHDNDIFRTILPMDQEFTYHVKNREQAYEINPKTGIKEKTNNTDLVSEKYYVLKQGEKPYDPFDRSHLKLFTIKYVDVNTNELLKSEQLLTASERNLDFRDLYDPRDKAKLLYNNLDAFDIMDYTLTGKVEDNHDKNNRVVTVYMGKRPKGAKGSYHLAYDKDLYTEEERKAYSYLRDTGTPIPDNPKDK
The experiment in a line: viability-normalized secreted streptokinase activity reduction – plasminogen activation absorbance, OD405, dose response (AID 1914).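 Further: secreted streptokinase activity via plasminogen activation per viability signal from cell pellet.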 Type of experiment: functional, Streptococcus pyogenes M1 GAS.

For experiment [10], the system named is INS1. The experiment is described as follows: INS-1E survival protection against cytokine death – cell-based, luminescence, retest, dose response (AID 449756).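 Further: cell death triggered by IL-1 beta plus TNF-alpha plus IFN-gamma mixture; protective hits raise ATP signal compared with cytokine alone wells.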 The conditions noted are these: Rattus norvegicus. Type of experiment: functional.
The test system of experiment [11] is HEK293. The experiment is described as follows: cells. Type of experiment: functional, cell-based. The settings on record: Homo sapiens.
Experiment [12] concerns HEK293. The experiment is described as follows: cells. Type of experiment: functional, cell-based. The conditions noted are these: Homo sapiens. The source holds these as a separate data set.
For experiment [13], the system named is HEK293. The experiment in a line: inhibition of NOD1-driven NF-kB reporter – cell-based, luminescence, uHTS, primary screen (AID 1578). Type of experiment: functional. The conditions noted are these: Homo sapiens.
Experiment [14] relates to HEK293. The experiment in a line: NOD2 signaling inhibitors in MDP-stimulated cells, cell-based, uHTS, luminescence (AID 2001). The conditions noted are these: Homo sapiens. Type of experiment: functional.
In experiment [15] the test system is Streptococcus. The experiment is described as follows: GAS UMAA2166 growth inhibition – luminescence, BacTiterGlo, counter-screen for streptokinase expression inhibitor project, dose response (AID 1915).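 Further: potency for reduction of bacterial viability or growth.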 Type of experiment: functional, organism-based.
The target in experiment [16] is Polyadenylate-binding protein 1 (Homo sapiens, UniProt P11940). The experiment is described as follows: blockers of PABP interaction with poly(A) – biochemical, fluorescence polarization, […] (AID 2014).
For experiment [17], the target named is Eukaryotic translation initiation factor 4H (Homo sapiens, UniProt Q15056). The experiment is described as follows: eIF4H binding inhibition – biochemical, uHTS, fluorescence polarization, translation initiation inhibitor project, primary screen (AID 2012). Background: Polarisation of emitted light reports the rotation of a fluorescent probe.
For experiment [18], the target named is DNA dC->dU-editing enzyme APOBEC-3G (Homo sapiens, UniProt Q9HC16). Type of experiment: functional.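 Further: Dose-response counterscreen measuring inhibition of APOBEC3G DNA deaminase activity, run while confirming APOBEC3A inhibitors.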
Experiment [19] deals with DNA dC->dU-editing enzyme APOBEC-3A (Homo sapiens, UniProt P31941). The experiment is described as follows: Dose Response confirmation of small molecule APOBEC3A DNA Deaminase Inhibitors via a fluorescence-based single-stranded DNA deaminase assay. [Related pubchem assays (depositor defined):AID493011, AID493024]. Type of experiment: functional.
Experiment [20] is described as follows: Trypanosoma cruzi growth suppression in host cells – NIH3T3 host cells, beta-gal luminescence, confirmation (AID 2044).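 Further: intracellular parasites grown in NIH/3T3 mouse fibroblasts as host cells; luminescent beta-galactosidase reporter signal from transgenic T. cruzi replicating inside host cells; inhibitors lower the luminescence signal.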 Type of experiment: functional, cell-based.
Experiment [21] in a line: HEK-293T viability loss after treatment – luminescence, T-cell screen hits, cytotoxicity control for TCR NF-kB inhibitor project, dose response (AID 489026).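 Further: cells exposed to compound about 14 hours before the viability readout.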 Type of experiment: functional, cell-based.
A short description of experiment [22]: Luminescence Cell-Based Dose Confirmation HTS to Identify Inhibitors of Platelet Dense Granule Release. [Related pubchem assays: 1663 (Primary HTS), 1678 (Summary of Project)]. Type of experiment: functional.
A short description of experiment [23]: cells.
Experiment [24] concerns the target Luciferin 4-monooxygenase (Photinus pyralis, UniProt P08659). The experiment is described as follows: inhibition of purified Photinus pyralis luciferase – biochemical, luminescence, dose response (AID 1891).
For experiment [25], the target named is T3, Short transient receptor potential channel 4 (Mus musculus, UniProt Q9QUQ5).
T3 sequence (Q9QUQ5 whole entry): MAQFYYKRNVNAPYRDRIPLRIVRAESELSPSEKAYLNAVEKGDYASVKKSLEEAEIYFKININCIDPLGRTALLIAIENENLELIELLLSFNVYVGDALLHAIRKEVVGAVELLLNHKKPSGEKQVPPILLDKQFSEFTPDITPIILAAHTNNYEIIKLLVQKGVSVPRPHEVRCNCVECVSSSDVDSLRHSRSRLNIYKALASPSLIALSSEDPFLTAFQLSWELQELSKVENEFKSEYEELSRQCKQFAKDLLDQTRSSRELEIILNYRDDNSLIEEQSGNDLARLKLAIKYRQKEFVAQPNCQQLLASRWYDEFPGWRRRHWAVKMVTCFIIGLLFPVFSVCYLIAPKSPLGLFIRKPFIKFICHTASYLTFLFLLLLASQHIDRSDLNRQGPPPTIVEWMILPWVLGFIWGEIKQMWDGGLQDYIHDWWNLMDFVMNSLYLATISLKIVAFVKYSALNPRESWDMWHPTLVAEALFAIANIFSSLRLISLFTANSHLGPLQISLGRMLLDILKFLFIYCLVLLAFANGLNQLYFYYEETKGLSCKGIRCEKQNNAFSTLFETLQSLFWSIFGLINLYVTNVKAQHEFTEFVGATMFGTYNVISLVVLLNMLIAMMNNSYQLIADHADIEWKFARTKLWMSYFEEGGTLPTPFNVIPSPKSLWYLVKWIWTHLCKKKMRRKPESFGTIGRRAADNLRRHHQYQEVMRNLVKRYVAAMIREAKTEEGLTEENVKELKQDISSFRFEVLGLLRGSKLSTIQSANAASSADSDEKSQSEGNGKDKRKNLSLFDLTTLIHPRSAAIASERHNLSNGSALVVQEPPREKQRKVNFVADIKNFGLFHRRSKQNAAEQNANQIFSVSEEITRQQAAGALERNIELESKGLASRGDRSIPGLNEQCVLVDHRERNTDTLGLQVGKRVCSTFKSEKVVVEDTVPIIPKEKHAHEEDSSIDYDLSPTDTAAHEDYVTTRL
The experiment is described as follows: block of DAMGO-driven TRPC4 calcium entry – cell-based, HEK293 TRPC4/mu-opioid, Fluo-4 calcium, dose response (AID 434942).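 Further: potency of inhibitors blocking the TRPC4 calcium response.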 Type of experiment: functional.

Experiment [26] is described as follows: NIH3T3 cell viability loss – ATP luminescence, mouse fibroblasts, counter-screen, dose response (AID 2010).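 Further: cells exposed to compound for about 90 hours before reading.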 Type of experiment: functional, cell-based.
Experiment [27] concerns the target Cyclin-dependent kinase 5/CDK5 activator 1 (Homo sapiens, UniProt Q00535). The experiment is described as follows: blockade of human CDK5 activity – biochemical, cherry-picked samples, set 2, dose response (AID 504545).

Consider 8 compounds from ChEMBL document CHEMBL1201862, “PubChem BioAssay data set” (2004).

SMILES strings stand for the structures. Active and inactive are the calls of the source.

Chain of Scavenger receptor class B member 1 (Q61009 whole entry, the tested form may be a part): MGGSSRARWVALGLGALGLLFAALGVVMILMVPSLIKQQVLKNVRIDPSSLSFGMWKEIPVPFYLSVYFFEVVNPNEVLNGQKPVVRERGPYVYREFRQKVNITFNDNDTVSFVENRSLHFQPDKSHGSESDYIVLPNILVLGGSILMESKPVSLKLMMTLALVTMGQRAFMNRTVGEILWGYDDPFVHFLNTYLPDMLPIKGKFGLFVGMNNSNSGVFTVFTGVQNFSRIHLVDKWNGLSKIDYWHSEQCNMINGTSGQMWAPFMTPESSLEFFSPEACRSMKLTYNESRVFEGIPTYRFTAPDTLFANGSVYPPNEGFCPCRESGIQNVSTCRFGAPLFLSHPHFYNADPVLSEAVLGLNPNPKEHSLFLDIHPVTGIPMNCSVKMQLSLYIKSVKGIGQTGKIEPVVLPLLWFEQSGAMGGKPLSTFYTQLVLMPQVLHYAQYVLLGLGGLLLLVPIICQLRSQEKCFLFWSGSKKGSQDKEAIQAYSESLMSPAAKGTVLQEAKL
Chain of Exodeoxyribonuclease V (P04993 whole entry): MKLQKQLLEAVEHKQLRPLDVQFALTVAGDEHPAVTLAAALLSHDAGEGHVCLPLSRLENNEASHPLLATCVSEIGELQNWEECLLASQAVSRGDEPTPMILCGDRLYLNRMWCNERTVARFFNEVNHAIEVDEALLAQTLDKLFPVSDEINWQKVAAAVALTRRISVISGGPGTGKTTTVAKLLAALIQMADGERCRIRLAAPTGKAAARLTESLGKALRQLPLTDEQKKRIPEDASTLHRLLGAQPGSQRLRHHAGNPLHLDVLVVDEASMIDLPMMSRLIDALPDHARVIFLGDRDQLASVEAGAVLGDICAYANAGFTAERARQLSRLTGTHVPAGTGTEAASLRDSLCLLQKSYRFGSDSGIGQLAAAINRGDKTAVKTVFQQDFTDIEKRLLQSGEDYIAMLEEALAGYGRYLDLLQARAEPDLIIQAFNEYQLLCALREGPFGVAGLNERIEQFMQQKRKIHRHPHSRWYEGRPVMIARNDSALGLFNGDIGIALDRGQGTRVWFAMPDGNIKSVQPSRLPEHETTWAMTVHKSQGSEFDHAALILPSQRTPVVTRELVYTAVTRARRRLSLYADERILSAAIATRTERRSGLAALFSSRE
Chain of Exodeoxyribonuclease V (P07648 whole entry): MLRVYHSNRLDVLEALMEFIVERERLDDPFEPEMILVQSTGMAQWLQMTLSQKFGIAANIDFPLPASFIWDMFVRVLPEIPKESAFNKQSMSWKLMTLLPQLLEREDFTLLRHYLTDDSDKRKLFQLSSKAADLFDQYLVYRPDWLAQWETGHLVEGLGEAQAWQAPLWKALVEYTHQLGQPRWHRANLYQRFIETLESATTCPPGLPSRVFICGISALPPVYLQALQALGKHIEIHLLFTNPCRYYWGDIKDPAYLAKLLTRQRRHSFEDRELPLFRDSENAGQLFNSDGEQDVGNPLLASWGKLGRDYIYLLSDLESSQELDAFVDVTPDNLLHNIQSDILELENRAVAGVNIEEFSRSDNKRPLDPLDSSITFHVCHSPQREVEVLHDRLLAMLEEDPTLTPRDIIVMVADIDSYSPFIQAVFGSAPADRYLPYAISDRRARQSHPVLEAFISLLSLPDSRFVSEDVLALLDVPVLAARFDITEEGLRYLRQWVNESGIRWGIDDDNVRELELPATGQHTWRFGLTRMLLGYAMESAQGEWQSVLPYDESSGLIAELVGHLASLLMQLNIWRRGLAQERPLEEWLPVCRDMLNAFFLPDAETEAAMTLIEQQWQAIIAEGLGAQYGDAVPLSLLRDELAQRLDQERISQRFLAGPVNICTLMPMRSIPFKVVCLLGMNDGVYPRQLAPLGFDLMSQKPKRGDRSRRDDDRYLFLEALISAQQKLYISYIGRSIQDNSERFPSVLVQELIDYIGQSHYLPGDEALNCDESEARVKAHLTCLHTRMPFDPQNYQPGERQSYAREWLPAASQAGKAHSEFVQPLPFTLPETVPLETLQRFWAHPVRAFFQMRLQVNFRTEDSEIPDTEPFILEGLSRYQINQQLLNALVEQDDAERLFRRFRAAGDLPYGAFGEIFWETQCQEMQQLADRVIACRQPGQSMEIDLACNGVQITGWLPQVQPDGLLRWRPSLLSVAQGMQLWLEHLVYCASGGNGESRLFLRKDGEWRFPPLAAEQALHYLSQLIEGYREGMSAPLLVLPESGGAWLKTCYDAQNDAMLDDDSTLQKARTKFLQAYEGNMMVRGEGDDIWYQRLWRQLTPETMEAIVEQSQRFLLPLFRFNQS
Chain of Exodeoxyribonuclease V (P08394 whole entry): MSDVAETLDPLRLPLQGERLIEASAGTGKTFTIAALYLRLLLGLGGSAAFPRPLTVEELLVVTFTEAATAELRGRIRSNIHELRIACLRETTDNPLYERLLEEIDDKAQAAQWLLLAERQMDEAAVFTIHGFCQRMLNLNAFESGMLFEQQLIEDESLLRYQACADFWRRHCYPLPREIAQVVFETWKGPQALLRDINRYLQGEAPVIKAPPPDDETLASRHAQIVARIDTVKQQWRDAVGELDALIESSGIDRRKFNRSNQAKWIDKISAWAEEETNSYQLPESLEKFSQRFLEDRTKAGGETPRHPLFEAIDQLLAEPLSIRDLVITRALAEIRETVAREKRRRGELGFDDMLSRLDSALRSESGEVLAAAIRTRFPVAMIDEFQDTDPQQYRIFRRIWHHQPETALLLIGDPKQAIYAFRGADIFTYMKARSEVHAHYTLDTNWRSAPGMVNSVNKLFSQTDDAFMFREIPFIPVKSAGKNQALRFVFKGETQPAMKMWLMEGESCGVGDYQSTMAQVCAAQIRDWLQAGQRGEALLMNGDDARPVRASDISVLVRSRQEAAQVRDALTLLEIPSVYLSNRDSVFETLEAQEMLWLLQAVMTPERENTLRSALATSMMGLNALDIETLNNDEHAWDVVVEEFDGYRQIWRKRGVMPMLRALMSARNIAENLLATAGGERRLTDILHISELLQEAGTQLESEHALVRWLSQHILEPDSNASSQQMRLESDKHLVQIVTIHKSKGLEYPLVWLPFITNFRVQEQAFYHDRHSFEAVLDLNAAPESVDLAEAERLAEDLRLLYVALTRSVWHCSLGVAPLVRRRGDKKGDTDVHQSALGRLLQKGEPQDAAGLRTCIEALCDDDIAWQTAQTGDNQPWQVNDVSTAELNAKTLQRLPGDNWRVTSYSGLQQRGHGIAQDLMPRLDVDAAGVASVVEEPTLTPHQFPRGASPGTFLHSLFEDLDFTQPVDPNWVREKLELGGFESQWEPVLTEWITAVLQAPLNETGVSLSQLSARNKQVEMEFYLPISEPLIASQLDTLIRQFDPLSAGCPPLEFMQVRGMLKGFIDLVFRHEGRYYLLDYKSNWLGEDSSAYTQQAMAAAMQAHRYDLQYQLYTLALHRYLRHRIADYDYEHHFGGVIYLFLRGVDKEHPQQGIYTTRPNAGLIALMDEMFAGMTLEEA
Chain of DNA dC->dU-editing enzyme APOBEC-3A (P31941 whole entry): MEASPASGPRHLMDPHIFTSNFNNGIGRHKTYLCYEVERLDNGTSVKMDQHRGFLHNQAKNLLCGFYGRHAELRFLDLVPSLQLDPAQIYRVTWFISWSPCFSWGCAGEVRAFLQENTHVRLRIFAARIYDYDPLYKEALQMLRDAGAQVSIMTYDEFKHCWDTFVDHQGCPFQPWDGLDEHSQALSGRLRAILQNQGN
Chain of Polyadenylate-binding protein 1 (P11940 whole entry): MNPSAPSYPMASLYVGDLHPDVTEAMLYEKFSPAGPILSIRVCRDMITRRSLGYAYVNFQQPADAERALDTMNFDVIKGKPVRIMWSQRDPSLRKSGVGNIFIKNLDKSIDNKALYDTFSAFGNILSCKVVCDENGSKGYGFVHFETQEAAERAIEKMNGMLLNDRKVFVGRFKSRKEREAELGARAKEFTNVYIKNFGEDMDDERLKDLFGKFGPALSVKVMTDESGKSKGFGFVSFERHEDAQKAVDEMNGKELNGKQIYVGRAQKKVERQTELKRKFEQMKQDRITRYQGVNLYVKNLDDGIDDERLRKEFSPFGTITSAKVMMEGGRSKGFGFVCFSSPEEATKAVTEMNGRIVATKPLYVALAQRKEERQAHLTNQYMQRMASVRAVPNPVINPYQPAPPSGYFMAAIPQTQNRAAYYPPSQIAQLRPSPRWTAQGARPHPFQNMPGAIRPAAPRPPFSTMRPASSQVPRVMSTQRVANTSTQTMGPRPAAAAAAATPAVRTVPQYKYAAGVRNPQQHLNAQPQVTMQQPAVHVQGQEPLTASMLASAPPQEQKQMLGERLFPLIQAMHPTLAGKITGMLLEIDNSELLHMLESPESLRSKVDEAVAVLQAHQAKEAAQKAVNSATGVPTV
Chain of DNA dC->dU-editing enzyme APOBEC-3G (Q9HC16 whole entry): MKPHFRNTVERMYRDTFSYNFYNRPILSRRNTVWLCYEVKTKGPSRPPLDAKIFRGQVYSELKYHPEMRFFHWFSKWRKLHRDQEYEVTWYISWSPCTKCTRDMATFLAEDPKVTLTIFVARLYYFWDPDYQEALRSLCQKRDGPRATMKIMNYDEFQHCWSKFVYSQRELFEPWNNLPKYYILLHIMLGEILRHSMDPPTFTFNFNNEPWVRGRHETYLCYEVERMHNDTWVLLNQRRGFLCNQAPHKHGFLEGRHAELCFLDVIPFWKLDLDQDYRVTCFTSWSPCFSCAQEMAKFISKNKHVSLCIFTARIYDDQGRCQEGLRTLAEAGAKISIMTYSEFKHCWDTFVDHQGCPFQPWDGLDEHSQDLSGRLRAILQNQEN

For `Cc1cc2cc(CCNC(=O)c3ccc(S(=O)(=O)N4CCCC4)cc3)c(O)nc2cc1C`, the IC50 in experiment [1] was 13.6 µM (active).

In the case of `COc1ccccc1Nc1nc(-c2c(C)[nH]c3ccccc23)cs1`, the AC50 in experiment [2] is 19.4 µM (active).

Take `CCOc1ccc2c(c1)-c1c(ssc1=S)C(C)(C)N2C(=O)c1ccco1`: the AC50 in experiment [3] was 17.6 µM (active); in experiment [2] it was 13.7 µM (active). For the same compound, in [4], the IC50 was 46.2 µM (inactive).

Turning to `CCOC(=O)c1cn(CC)c2cc(N3CCSCC3)c(F)cc2c1=O`, the values for the IC50 in experiment [5] and in experiment [6] were 63.8 µM (inactive) and > 119 µM (inactive), respectively.

As for `CCCCOc1ccc(/C=C/C(=O)Nc2ccc(C(N)=O)cc2)cc1`, the half-maximal inhibitory concentration (IC50) in experiment [7] was 96.7 µM (active).

As to `C=CCSc1nsc(NC(=O)Nc2ccc(F)cc2)n1`, the EC50 in [8] is 8.13 µM (active); in experiment [9] it was 23.4 µM (active); in experiment [13] it was 3.56 µM (active); in experiment [15], 30.4 µM (active). For the same compound, the IC50 is > 119 µM (inactive) in experiment [5]; 10.1 µM (active) in experiment [11]; 2.64 µM (active) in [12]; > 119 µM (inactive) in experiment [6]; 2.93 µM (active) in [14]. Moreover, in experiment [10], the AC50 was 3.1 µM (active).

For `CCCCCn1c2c(c(=N)c3ccccc31)CCC2`, the IC50 was 5.93 µM (active) in experiment [16]; > 100 µM (inactive) in [17]; 3.19 µM (active) in experiment [18]; 2.62 µM (active) in [19]; > 80 µM (inactive) in [21]. The half-maximal effective concentration (EC50) is < 0.1 µM (active) in experiment [20]; 0.788 µM (active) in [22]; 0.006 µM (active) in experiment [23]; > 112 µM (not active) in experiment [24]; 1.5 µM (active) in experiment [25]; > 60 µM (not active) in experiment [26].

Regarding `Cc1nn(-c2nccs2)c2c1C(=O)CC(C)(C)C2Br` (stereo not given), in [27], the AC50 was 7.37 µM (active).

By IC50 is commonly meant the point on the concentration scale where inhibition reaches its midpoint. The term AC50 denotes the concentration at which the activity in the assay is half-maximal. By EC50 is commonly meant the concentration giving half of the maximal effect.
